Data on one compound can be found in patent publication US20120258990A1 (priority 2009, published 2012).

This assay deals with Plasmopara viticola. As to the kind of experiment: Plasmopara viticola/Grape/Curative (Grape Downy Mildew). Particulars: 200 ppm; grape seedlings cv. Gutedel, inoculated one day before application, assessed 4-6 days after application. It is filed as in vivo. The protocol:
Plasmopara viticola/Grape/Curative (Grape Downy Mildew)
5-week-old grape seedlings cv. Gutedel are inoculated by spraying a sporangia suspension on their lower leaf surface one day before application. The inoculated grape plants are sprayed in a spray chamber with the formulated test compound diluted in water. The inoculated test plants are incubated at 22° C. and 100% rh in a greenhouse and the percentage leaf area covered by disease is assessed when an appropriate level of disease appears on untreated check plants (4-6 days after application).

As to `Cc1cc(C(F)(F)F)nn1CC(=O)N(C)CCCc1nc(C(=O)N(C)[C@@H]2CCCc3ccccc32)cs1` [Compound I.d.55, 2-(3-{methyl-[2-(5-methyl-3-trifluoromethyl-pyrazol-1-yl)-acetyl]-amino}-propyl)-thiazole-4-carboxylic acid methyl-(R)-1,2,3,4-tetrahydro-naphthalen-1-yl-amide], the disease control entry is “at least 80%”.
